Assay results taken from patent US20230165812A1, “NOCICEPTOR NEURONS CONTROL CANCER IMMUNOSURVEILLANCE” (priority 2020, published 2023).
“Also recorded” adds a separate entry of the source. Read-outs that look alike come from different tables or passages of the source.

How the values were obtained:
B16F10 [1] = assay type: in vivo, mice; conditions: for reduction of B16F10 melanoma growth compared with vehicle / reduction of tumor weight compared with vehicle: B16F10-bearing mice; for reduction of B16F10 melanoma growth compared with vehicle: QX-314 0.3% daily i.d. surrounding the tumor, BIBN4096 systemically once every two days (5 mg/kg i.p.); for reduction of tumor weight compared with vehicle: QX-314 0.3% daily i.d., BIBN4096 5 mg/kg i.p.
B16F10 [2] = assay type: in vivo, mice
[3] = system: tumor-infiltrating CD8+ and CD4+ T-cells; assay type: in vivo, mice; conditions: for reduction of the proportion of PD1+Lag3+Tim3+ CD8+ T-cells: intra-tumoral, QX-314 0.3% daily i.d.
CGRP = system: CGRP; parameters: species or system mice; conditions: capsaicin 1 μM; 3 h
[4] = system: cytotoxic CD8+ T-cells co-cultured with DRG neurons; experiment: DRG neuron / cytotoxic CD8+ T-cell co-culture; assay type: cell-based, mice; conditions: capsaicin without neurons
[5] = system: cytotoxic CD8+ T-cells co-cultured with DRG neurons; experiment: DRG neuron / cytotoxic CD8+ T-cell co-culture; assay type: cell-based, mice; conditions: for INFγ+ CD8+ T-cells in co-culture with DRG neurons / TNFα+ CD8+ T-cells in co-culture with DRG neurons / proportion of PD1+Lag3+Tim3+ CD8+ T-cells in co-culture with DRG neurons: neuron stimulation, 48 h co-culture
Description: Naïve DRG neurons (1×10^4) were seeded in T cell media (supplemented with 0.05 ng/μL NGF (Life Technologies, #13257-019), 0.002 ng/μL GDNF (Peprotech, #450-51-10), and co-cultured with Tc1 CD8 T cells (1×10^5) in presence of IL-2 (575408). In some instances, co-cultures were stimulated with either of capsaicin (300 nM, twice/day) or KCl (40 mM). After 48 h, the cells were collected by centrifugation (5 min at 1300 rpm), stained and immunophenotyped by flow cytometry.

[6] = system: tumor-infiltrating CD8 and CD4 T cells; assay type: in vivo, mice
B16F10 cells = assay type: cell-based, mouse; conditions: BIBN4096 1-4 μM
CGRP receptor = CGRP receptor (Mus musculus, UniProt Q9R1W5+Q9WTJ5); conditions: in vivo; cited from earlier work
Sequence of CGRP receptor (Q9R1W5 25-463): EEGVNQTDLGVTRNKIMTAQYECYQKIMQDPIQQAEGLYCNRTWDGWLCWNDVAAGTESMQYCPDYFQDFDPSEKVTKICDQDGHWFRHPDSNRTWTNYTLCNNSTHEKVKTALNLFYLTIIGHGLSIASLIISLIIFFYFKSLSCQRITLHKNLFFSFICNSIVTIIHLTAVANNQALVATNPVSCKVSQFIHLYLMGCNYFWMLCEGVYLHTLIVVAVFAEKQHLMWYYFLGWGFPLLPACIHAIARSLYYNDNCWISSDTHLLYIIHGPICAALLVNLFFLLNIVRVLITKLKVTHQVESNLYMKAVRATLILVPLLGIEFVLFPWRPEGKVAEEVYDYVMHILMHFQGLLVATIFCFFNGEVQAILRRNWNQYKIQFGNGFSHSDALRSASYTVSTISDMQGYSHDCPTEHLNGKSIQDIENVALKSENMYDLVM
Sequence of CGRP receptor (Q9WTJ5 27-148): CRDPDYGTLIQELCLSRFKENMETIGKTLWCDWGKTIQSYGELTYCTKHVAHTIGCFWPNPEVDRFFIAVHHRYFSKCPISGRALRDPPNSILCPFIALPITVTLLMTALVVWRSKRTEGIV

B16F10 [7] = system: B16F10; parameters: species or system mice; conditions: mouse, in vivo

CC[N+](CC)(CC)CC(=O)Nc1c(C)cccc1C [QX-314]
IL2+ cultured cytotoxic CD8+ T-cells (cytotoxic CD8+ T-cells): do not impact | INFγ+ cultured cytotoxic CD8+ T-cells (cytotoxic CD8+ T-cells): do not impact | TNFα+ cultured cytotoxic CD8+ T-cells (cytotoxic CD8+ T-cells): do not impact | proportion of PD1+Lag3+Tim3+ cultured cytotoxic CD8+ T-cells (cytotoxic CD8+ T-cells): do not impact | survival of cultured cytotoxic CD8+ T-cells (cytotoxic CD8+ T-cells): do not impact | reduction of B16F10 melanoma growth compared with vehicle (B16F10 [1]): ~3.3 fold | reduction of tumor weight compared with vehicle (B16F10 [1]): ~5.2 fold | rate at which vehicle exposed mice succumb relative to treated mice (B16F10 [2]; B16F10-bearing mice, p≤0.0001): 2.7 fold | hazard ratio (survival) (B16F10 [2]; mouse, in vivo): 0.37 | reduction of the proportion of PD1+Lag3+Tim3+ CD8+ T-cells ([3]; BIBN4096 5 mg/kg i.p.): ~15 fold

COc1cc(CNC(=O)CCCC/C=C/C(C)C)ccc1O [capsaicin]
CGRP levels in B16F10 tumor surrounding skin explant (CGRP): further enhanced | impact on CD8+ T-cells in the absence of neurons [4]: no measurable impact | IL2+ CD8+ T-cells in co-culture with DRG neurons ([5]; capsaicin-challenge): decreased | proportion of PD1+ T cells in co-culture with DRG neurons ([5]; capsaicin-challenge): increases | INFγ+ CD8+ T-cells in co-culture with DRG neurons [5]: reduced; also recorded: decreased | TNFα+ CD8+ T-cells in co-culture with DRG neurons [5]: decreased; also recorded: reduced | proportion of PD1+Lag3+Tim3+ CD8+ T-cells in co-culture with DRG neurons [5]: increased | INFγ+ CD8+ T-cells in co-culture with DRG neurons ([5]; listed as Capsaicin): decreased | TNFα+ CD8+ T-cells in co-culture with DRG neurons ([5]; listed as Capsaicin): decreased

NCCCC[C@H](NC(=O)[C@@H](Cc1cc(Br)c(O)c(Br)c1)NC(=O)N1CCC(N2Cc3ccccc3NC2=O)CC1)C(=O)N1CCN(c2ccncc2)CC1 [BIBN4096]
IL2+ cultured cytotoxic CD8+ T-cells (cytotoxic CD8+ T-cells): do not impact | INFγ+ cultured cytotoxic CD8+ T-cells (cytotoxic CD8+ T-cells): do not impact | TNFα+ cultured cytotoxic CD8+ T-cells (cytotoxic CD8+ T-cells): do not impact | proportion of PD1+Lag3+Tim3+ cultured cytotoxic CD8+ T-cells (cytotoxic CD8+ T-cells): do not impact | survival of cultured cytotoxic CD8+ T-cells (cytotoxic CD8+ T-cells): do not impact | effects of αCD3/αCD28 stimulation on CD8+ T-cells (cytotoxic CD8+ T-cells; BIBN4096 1-4 μM): do not prevent | reduction of B16F10 melanoma growth compared with vehicle (B16F10 [1]): ~1.5 fold | reduction of tumor weight compared with vehicle (B16F10 [1]): ~1.9 fold | B16F10 tumor growth (B16F10 [1]; mouse, in vivo, ip, 5 mg/kg): decreased | B16F10 tumor volume (B16F10 [1]; mouse, in vivo, ip, 5 mg/kg): decreased | B16F10 tumor weight (B16F10 [1]; mouse, in vivo, ip, 5 mg/kg): decreased | intra-tumor PD1+ CD8 T cells ([6]; BIBN 5 mg/kg): decreased | tumor infiltration of PD1+ CD4 T cells ([6]; BIBN 5 mg/kg i.d.): decreased | infiltration of INFγ+ CD8 T cells ([6]; Example 2 dosing): increasing; also recorded: enhanced | total number of intra-tumoral CD4 T cells ([6]; Example 2 dosing): enhanced; also recorded: increased | tumor infiltration of INFγ+ CD4 T cells ([6]; Example 2 dosing): increased | tumor infiltration of TNFα+ CD4 T cells ([6]; Example 2 dosing): decreased | tumor infiltration of TNFα+ CD8 T cells ([6]; Example 2 dosing): increasing; also recorded: increased | tumor infiltration of Granzyme B+ CD4 T cells ([6]; mouse, in vivo): increased | tumor infiltration of Granzyme B+ CD8 T cells ([6]; mouse, in vivo): increasing; also recorded: increased | increase of intra-tumor number of INFγ+ CD8+ T-cells ([3]; BIBN4096 5 mg/kg i.p.): ~3 fold | increase of intra-tumor number of total CD8+ T-cells ([3]; BIBN4096 5 mg/kg i.p.): ~3 fold | intra-tumoral number of Granzyme B+ CD4+ T-cells ([3]; BIBN4096 5 mg/kg i.p.): increased | intra-tumoral number of INFγ+ CD4+ T-cells ([3]; BIBN4096 5 mg/kg i.p.): increased | intra-tumoral number of TNFα+ CD4+ T-cells ([3]; BIBN4096 5 mg/kg i.p.): increased | intra-tumoral proportion of PD1+ CD4+ T-cells ([3]; BIBN4096 5 mg/kg i.p.): decreased | intra-tumoral number of Granzyme B+ CD8+ T-cells ([3]; Example 1 dosing): increased | intra-tumoral number of INFγ+ CD8+ T-cells ([3]; Example 1 dosing): increased | intra-tumoral number of TNFα+ CD8+ T-cells ([3]; Example 1 dosing): increased | intra-tumoral number of total CD8+ T-cells ([3]; Example 1 dosing): increased | reduction of the proportion of PD1+Lag3+Tim3+ CD8+ T-cells ([3]; BIBN4096 5 mg/kg i.p.): ~2.5 fold | intra-tumoral total CD4+ T-cells counts ([3]; mouse, in vivo): increased | number/proportion of intra-tumor PD1+Lag3+Tim3+ CD8+ T-cells ([3]; mouse, in vivo, ip, 5 mg/kg): decreased | cultured B16F10 survival (B16F10 cells): no impact | host anti-bacterial activity during microbe infection (CGRP receptor): rescues | B16F10 tumor growth (B16F10 [7]): reduced; also recorded: decreased | B16F10 tumor volume (B16F10 [7]): reduced | B16F10 tumor weight (B16F10 [7]): reduced

[Cl-].[K+] [KCl, potassium chloride]
INFγ+ CD8+ T-cells in co-culture with DRG neurons [5]: decreased | TNFα+ CD8+ T-cells in co-culture with DRG neurons [5]: decreased | proportion of PD1+Lag3+Tim3+ CD8+ T-cells in co-culture with DRG neurons [5]: increased
